# Patent US5541187A, “6-heterocycyclyl pyrazolo[3,4-d]pyrimidin-4-ones and compositions and method of use thereof” (Sterling Winthrop Inc., priority 1993, dated 1996)
# Where “and” joins values, the source holds several entries; their conditions need not be identical. Equal entries are not always repeated. Structures can show the parent of a compound that is named as a salt.
# Tested on: cGMP-PDE I
# Test: cGMP-PDE I inhibitory activity (cyclic nucleotide hydrolysis, isolated PDE isozyme)
# Assay type: biochemical, various animal species and man
# Conditions: for IC50: values marked * are from two separate experimental runs
# Method: Multiple isozymic forms of cyclic nucleotide phosphodiesterase (PDE) have been identified in mammalian cells. […] Elevation of intracellular cGMP in vascular smooth muscle triggers a cascade of events that leads to a reduction in muscle tone while elevations in renal tubule cell cGMP stimulates natriuresis and diuresis. Vascular smooth muscle and renal cells contain a phosphodiesterase isozyme that has a low Km (1 μM) for the hydrolysis of cGMP. This isozyme has been referred to as the cGMP-PDE or cGMP-PDE I since it elutes from an anion-exchange sepharose resin in the first peak of PDE activity at a sodium acetate concentration between 150-200 mM. Thus inhibition of the cGMP-PDE isozyme is a viable subcellular mechanism by which increases in cGMP can produce a reduction in total peripheral resistance and a stimulation of natriuresis and diuresis. The development of cGMP-PDE inhibitors represents an approach for the discovery of agents useful for treating heart failure and hypertension. For example, compounds having high inhibitory potency for the cGMP-PDE are expected to lower blood pressure and induce natriuresis and diuresis.
# The cGMP-PDE and other PDE isozymes were isolated from cardiovascular tissues (heart and aorta) of various animal species and man by anion-exchange and affinity chromatography as described by Silver et al., Sec. Messeng. Phos. 13:13-25, 1991; PDE activity, in the presence and absence of test compounds was determined essentially as described by Thompson et al., Adv. Cyclic Nucleotide Res. 10:69-92. To determine the potency and selectivity of compounds as PDE inhibitors, compounds are screened for their effect on cyclic nucleotide hydrolysis at 10 μM. If ≥50% inhibition of PDE activity is observed, an IC50 value (concentration of compound causing 50% reduction in PDE activity) and corresponding 95% confidence intervals are generated. The IC50 values are calculated from concentration-response curves as described by Tallarida and Murray, Manual of Pharmacologic Calculations with Computer Programs, Procedure 8, Graded Dose-response, pp. 14-19, Springer-Verlag, N.Y., 1981.
IC50,SMILES,Percent Inhibition cGMP-PDE I (1 μM),Percent Inhibition cGMP-PDE I (10 μM),Percent Inhibition cGMP-PDE I (0.1 μM)
,"CN(C)c1[nH]n(C2CCCC2)c2nc(-c3ccncc3)nc(=O)c1-2 [Example 20c, 1-Cyclopentyl-3-dimethylamino-6-(4-pyridyl) pyrazolo[3,4-d]pyrimidin-4-one]",36%,70%,
3700 nM,O=c1[nH]c(-c2ccncc2)nc2c1cnn2C1CCCC1 [Example 71],,,
1150 nM,O=c1[nH]c(-c2ccncc2)nc2c1c(Cl)nn2C1CCCC1 [Example 72],,,
1800 nM,O=c1[nH]c(-c2ccncc2)nc2c1c(Br)nn2C1CCCC1 [Example 73],,,
,O=c1[nH]c(-c2ccncc2)nc2c1c([N+](=O)[O-])nn2C1CCCC1 [Example 74],0%,32%,
,Cc1n[nH]c2nc(-c3ccncc3)[nH]c(=O)c12 [Example 76],0%,24%,
,Cc1nn(Cc2ccccc2)c2nc(-c3ccncc3)[nH]c(=O)c12 [Example 77],13%,80%,
,Cc1nn(CCCCCCCCC(=O)O)c2nc(-c3ccncc3)[nH]c(=O)c12 [Example 78],54%,,
4700 nM,Cc1nn(CCCCCCC(=O)O)c2nc(-c3ccncc3)[nH]c(=O)c12 [Example 79],,,
2700 nM,Cc1nn(CCCCCC(=O)O)c2nc(-c3ccncc3)[nH]c(=O)c12 [Example 80],,,
200 nM,Cc1nn(Cc2cccc(Cl)c2)c2nc(-c3ccncc3)[nH]c(=O)c12 [Example 81],,,
550 nM,Cc1nn(Cc2ccccc2Cl)c2nc(-c3ccncc3)[nH]c(=O)c12 [Example 82],,,
610 nM,Cc1nn(CCCCCCCC(=O)O)c2nc(-c3ccncc3)[nH]c(=O)c12 [Example 84],,,
,Cc1nn(Cc2ccc(C#N)cc2)c2nc(-c3ccncc3)[nH]c(=O)c12 [Example 85],,42%,
,Cc1nn(Cc2cccc(C#N)c2)c2nc(-c3ccncc3)[nH]c(=O)c12 [Example 86],,41%,
2700 nM and 3600 nM,Cc1ccccc1Cn1nc(C)c2c(=O)[nH]c(-c3ccncc3)nc21 [Example 87],,,
,CCCCCCCCn1nc(C)c2c(=O)[nH]c(-c3ccncc3)nc21 [Example 88],32%,,
,Cc1nn(CC2CCCC2)c2nc(-c3ccncc3)[nH]c(=O)c12 [Example 89],17%,77%,
850 nM,Cc1nn(C2CC3CCC2C3)c2nc(-c3ccncc3)[nH]c(=O)c12 (centres unmarked) [Example 91],,,
680 nM,CC(C)(C)n1ncc2c(=O)[nH]c(-c3ccncc3)nc21 [Example 92],,,
480 nM,CCc1nn(C(C)(C)C)c2nc(-c3ccncc3)[nH]c(=O)c12 [Example 94],,,
,CC(C)(C)c1nn(C2CCCC2)c2nc(-c3ccncc3)[nH]c(=O)c12 [Example 95],9%,32%,

IC50,SMILES,Percent Inhibition cGMP-PDE I (1 μM),Percent Inhibition cGMP-PDE I (10 μM),Percent Inhibition cGMP-PDE I (0.1 μM)
670 nM,O=c1[nH]c(-c2ccncc2)nc2c1c(C(F)(F)F)nn2C1CCCC1 [Example 96],,,
,"CCN(CC)CCCn1nc(C)c2c(=O)[nH]c(-c3ccncc3)nc21 [Example 99, 1-(3-Diethylaminopropyl)-3-methyl-6-(4-pyridyl)pyrazolo[3,4-d]pyrimidin-4-one. 1/2 hydrate]",0%,12%,
,"N#Cc1[nH]n(C2CCCC2)c2nc(-c3ccncc3)nc(=O)c1-2 [Example 100, 1-Cyclopentyl-3-cyano-6-(4-pyridyl)-pyrazolo-[3,4-d]pyrimidin-4-one]",9%,35%,
1780 nM,"Cc1nn(C2CCOC2)c2nc(-c3ccncc3)[nH]c(=O)c12 (centres unmarked) [Example 101, 1-(3-Tetrahydrofuranyl)-3-methyl-6-(4-pyridyl)-pyrazolo-[3,4-d]pyrimidin-4-one-1/4 hydrate]",,,
1900 nM,"Cc1[nH]n(C2CCC2)c2nc(-c3ccncc3)nc(=O)c1-2 [Example 102, 1-Cyclobutyl-3-methyl-6-(4-pyridyl)-pyrazolo-[3,4-d]pyrimidin-4-one]",,,
,"Cc1[nH]n(C)c2nc(-c3ccncc3)nc(=O)c1-2 [Example 103, 1,3-Dimethyl-6-(4-pyridyl)-pyrazolo-[3,4-d]pyrimidin-4-one]",0%,19%,
12400 nM,"Cc1[nH]n(C2CCCO2)c2nc(-c3ccncc3)nc(=O)c1-2 (centres unmarked) [Example 104, 1-(2-tetrahydrofuranyl)-3-methyl-6-(4-pyridyl)-pyrazolo-[3,4-d]pyrimidin-4-one]",,,
6700 nM,"Cc1[nH]n(Cc2ccc([N+](=O)[O-])cc2)c2nc(-c3ccncc3)nc(=O)c1-2 [Example 105, 1-(4-Nitrophenylmethyl)-3-methyl-6-(4-pyridyl)pyrazolo[3,4-d]pyrimidin-4-one]",,,
,"Cc1[nH]n(Cc2cc([N+](=O)[O-])ccc2Cl)c2nc(-c3ccncc3)nc(=O)c1-2 [Example 106, 1-(2-Chloro-5-nitrophenylmethyl)-3-methyl-6-(4-pyridyl)pyrazolo[3,4-d]pyrimidin-4-one]",24%,63%,
,"Cc1[nH]n(Cc2cc(NS(=O)(=O)c3cccc4cccnc34)ccc2Cl)c2nc(-c3ccncc3)nc(=O)c1-2 [Example 108, 1-[2-Chloro-5-((8-quinolinylsulfonyl)amino)phenylmethyl]-3-methyl-6-(4-pyridyl)-pyrazolo[3,4-d]pyrimidin-4-one]",38%,86%,
,"Cc1nn(C2CCCC2)c2nc(C3CCNCC3)[nH]c(=O)c12 [Example 109, 1-Cyclopentyl-3-methyl-6-(4-piperidinyl)-pyrazolo[3,4-d]-pyrimidin-4-one monohydrochloride. 1/2 hydrate]",7%,13%,
,"Cc1[nH]n(Cc2ccc(C(N)=O)cc2)c2nc(-c3ccncc3)nc(=O)c1-2 [Example 110, 1-(4-Carbamoylphenylmethyl)-3-methyl-6-(4-pyridyl)pyrazolo[3,4-d]pyrimidin-4-one]",23%,74%,
,"Cc1[nH]n(Cc2ccc(C(=O)O)cc2)c2nc(-c3ccncc3)nc(=O)c1-2 [Example 111, 1-(4-Carboxylphenylmethyl)-3-methyl-6-(4-pyridyl)-pyrazolo[3,4-d]pyrimidin-4-one]",0%,24%,
,"Cc1[nH]n(Cc2cccc(C(=O)O)c2)c2nc(-c3ccncc3)nc(=O)c1-2 [Example 112, 1-(3-Carboxyphenylmethyl)-3-methyl-6-(4-pyridyl)-pyrazolo[3,4-d]pyrimidin-4-one]",4%,52%,
,"Cc1[nH]n(Cc2cccc(C(N)=O)c2)c2nc(-c3ccncc3)nc(=O)c1-2 [Example 113, 1-(3-Carbamoylphenylmethyl)-3-methyl-6-(4-pyridyl) pyrazolo[3,4-d]pyrimidin-4-one]",0%,48%,
,"CCc1nn(C2CCCC2)c2nc(-c3cccn4ccnc34)[nH]c(=O)c12 [Example 114c, 1-cyclopentyl-3-ethyl-6-(8-imidazo[1,2-a]pyridine)pyrazolo[3,4-d]pyrimidin-4-one methanesulfonate]",5%,52%,
,"CC(=O)N1CCC(c2nc3n(C4CCCC4)[nH]c(C)c-3c(=O)n2)CC1 [Example 115, 1-Cyclopentyl-3-methyl-6-(1-acetyl-4-piperidinyl)pyrazolo[3,4-d]pyrimidin-4-one]",6%,51%,
,"Cc1[nH]n(C2CCCC2)c2nc(C3CCN(C(=O)C(F)(F)F)CC3)nc(=O)c1-2 [Example 116, 1-Cyclopentyl-3-methyl-6-(1-trifluoroacetyl-4-piperidinyl)pyrazolo[3,4-d]pyrimidin-4-one]",34%,,
,"CCc1[nH]n(C2CCCC2)c2nc(-c3cc(C)nc(Cl)c3)nc(=O)c1-2 [Example 117, 1-Cyclopentyl-3-ethyl-6-(2-chloro-6-methyl-4-pyridyl)pyrazolo[3,4-d]pyrimidin-4-one]",11%,22%,
660 nM,"CCc1[nH]n(C2CCCC2)c2nc(-c3ccnc(C)c3)nc(=O)c1-2 [Example 118, 1-Cyclopentyl-3-ethyl-6-(2-methyl-4-pyridyl)pyrazolo[3,4-d]pyrimidin-4-one]",61%,,22%
,"CCc1nn(C2CCCC2)c2nc(-c3cc(C)nc(-n4ccnc4)c3)[nH]c(=O)c12 [Example 120, 1-Cyclopentyl-3-ethyl-6-[2-(1-imidazolyl)-6-methyl-4-pyridyl]pyrazolo[3,4-d]pyrimidin-4-one-1/4 hydrate]",60%,,16%
